Results published in BindingDB's records for doi:10.1016/j.ejmech.2018.10.038 (Universities of Shandong, 2019).

How the values were obtained:
[1] = Reversal of P-gp-mediated multidrug resistance in human KBV cells assessed as potentiation of paclitaxel-induced cytotoxicity by measuring paclitaxel IC50 at 10 uM after 72 hrs by MTT assay (Rvb = 1353.98 +/- 303.33 nM)
[2] = Reversal of P-gp-mediated multidrug resistance in human KBV cells assessed as potentiation of paclitaxel-induced cytotoxicity by measuring paclitaxel IC50 at 5 uM after 72 hrs by MTT assay (Rvb = 1353.98 +/- 303.33 nM)

SMILES | IC50 [1] [nM] | IC50 [2] [nM]
CC(C)(O)[C@H]1CC[C@@](C)([C@H]2CC[C@]3(C)[C@@H]2[C@H](O)C[C@@H]2[C@@]4(C)CC[C@H](N)C(C)(C)[C@@H]4CC[C@]23C)O1 | 48 | 135
CC(C)(C)OC(=O)NCCCCCC(=O)N[C@H]1CC[C@]2(C)[C@H]3C[C@@H](O)[C@@H]4[C@@H]([C@]5(C)CC[C@H](C(C)(C)O)O5)CC[C@@]4(C)[C@]3(C)CC[C@H]2C1(C)C | 28 | 48
